5 molecules from ChEMBL document CHEMBL5528087, “RNA-Small-Molecule Interaction: Challenging the "Undruggable" Tag” (J Med Chem, 2024) can be followed below.

One may read the Kd as the concentration at which binding is half-saturated. As a reminder, the ΔTm is the shift of the melting midpoint relative to a reference. Broadly, the Ki is the equilibrium dissociation constant of an inhibitor or competing ligand from its target.

Assay [1] addresses preQ1 riboswitch. The assay is described as follows: Binding affinity to Thermoanaerobacter tengcongensis 5-Cy5-PreQ1-RS RNA assessed as dissociation constant. The assay is classed as nucleic-acid assay, Caldanaerobacter subterraneus subsp. tengcongensis.
Assay [2] deals with preQ1 riboswitch. The assay is described as follows: Binding affinity to Bacillus subtilis 5-Cy5-PreQ1-RS RNA assessed as dissociation constant. The assay is classed as nucleic-acid assay.
The target in assay [3] is Quadruplex DNA. The assay is described as follows: Binding affinity to TERRA G-Quadruplex (unknown origin) assessed as dissociation constant. The assay is classed as nucleic-acid assay.
The subject of assay [4] is Quadruplex DNA. Description: Binding affinity to TERRA G-Quadruplex (unknown origin) assessed as melting temperature. The class given is nucleic-acid assay.
For assay [5], the target named is T1, Non-structural protein 4b (Hepacivirus hominis, UniProt F5B4I0).
T1 sequence (F5B4I0 whole entry): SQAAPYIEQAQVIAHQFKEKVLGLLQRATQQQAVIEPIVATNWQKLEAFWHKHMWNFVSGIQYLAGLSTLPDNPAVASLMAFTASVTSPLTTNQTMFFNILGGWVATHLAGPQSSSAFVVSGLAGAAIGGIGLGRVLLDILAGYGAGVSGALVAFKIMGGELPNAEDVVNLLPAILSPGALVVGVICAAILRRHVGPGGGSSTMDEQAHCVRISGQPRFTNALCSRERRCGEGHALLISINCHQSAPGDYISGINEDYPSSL
Description: Binding affinity to Hepatitis C virus genotype 1 NS4B assessed as inhibition constant.

Assay [6] addresses T2, Survival of motor neuron-related-splicing factor 30 (Homo sapiens) (UniProt O75940).
T2 sequence (whole entry): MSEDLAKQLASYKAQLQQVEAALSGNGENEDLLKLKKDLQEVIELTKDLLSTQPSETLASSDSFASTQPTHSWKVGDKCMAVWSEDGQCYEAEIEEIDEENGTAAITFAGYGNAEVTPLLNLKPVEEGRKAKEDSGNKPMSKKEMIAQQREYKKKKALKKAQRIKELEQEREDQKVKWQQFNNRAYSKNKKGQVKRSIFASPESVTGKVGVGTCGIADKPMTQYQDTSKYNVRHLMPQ
Description: Inhibition of SMNDC1 (unknown origin) assessed as fold increase at 40 uM.

Assay [7] can be described thus: Binding affinity to SARS-Cov-2 RNA pseudoknot assessed as dissociation constant. Set-up: species or system Severe acute respiratory syndrome coronavirus 2.

Take `NCCOc1ccc2oc3ccccc3c2c1`: the results for the Kd on preQ1 riboswitch [1] and at preQ1 riboswitch [2] were 0.457 µM and 0.534 µM, respectively.
Regarding `O=c1c2c(-c3ccco3)csc2nc2n1Cc1nc3scc(-c4ccco4)c3c(=O)n1C2`, the Kd at Quadruplex DNA [3] was found to be 8.8 µM. In the assay with Quadruplex DNA [4], the ΔTm is over 5 °C.
`CN(C)CCCNc1nc2ccc(N)cc2o1`: the Ki in assay [5] came to 6 µM.
With `O=C(c1cnc(C(=O)c2c[nH]c3cc(O)ccc23)[nH]1)c1c[nH]c2ccccc12`, the fold change (FC) in assay [6] was 1.5.
`CCOC(=O)c1ccccc1NC(=O)N1CCCN(Cc2csc(C)n2)CC1`: the Kd in assay [7] was found to be 210 µM.
